Legend:
[1] = test system: A549 cells; experiment: GSH-Glo glutathione level assay in A549 cells; format: cell-based, human; settings: treated 48 hours, even at concentrations as low as 0.1 μM
Method: Cells were treated for 48 hours, and then glutathione levels were determined using a GSH-Glo assay kit and procedure from Promega.

[2] = test system: A549 lung cancer cells; experiment: A549 xenograft study in athymic nude mice (Example 7), tumor volume; format: in vivo; settings: combination of doxorubicin 2 mg/kg every 2 days and Compound 91 200 mg/kg every day
Method: (§1) A xenograph study was performed using A549 lung cancer cells to interrogate the in vivo synergy between a representative ROS-producing anti-cancer drug and a PKM2 activator. Mice (6-8 week old female athymic nude) were housed under standard conditions, and allowed food and water ad libitum and injected with 1×10^7 A549 cells per mouse.
(§2) Tumor volume and body weights were measured and recorded twice weekly (FIGS. 7A and 7B, respectively). Upon completion of the study, mice were euthanized and tumor tissues were harvested.

[3] = Body weight in A549 xenograft study (Example 7); format: in vivo; settings: combination of doxorubicin 2 mg/kg every 2 days and Compound 91 200 mg/kg every day, athymic nude mice
Method: as §1, with “mouse. […] Compound 91 was administered orally at a concentration of 200 mg/kg every day.” for “mouse.”
as §2

[4] = test system: A549 cells; experiment: Cell-titer-Glo cell viability, A549 cells; format: cell-based, human; settings: A549 cells, Compound 91 at 4 μM, Cell-titer-Glo
[5] = test system: Panc1 cells; experiment: Cell-titer-Glo cell viability, Panc1 cells; format: cell-based; settings: Compound 91 at 4 μM
Method: A549 and Pancl cells were plated using 384-well plates at a density of 1,200 cells per well. Cells were plated in RPMI media and allowed to adhere for 24 hours at 37° C. […] Cells were also treated with Compound 91 alone as a control. Cell viability was determined according to the Cell-titer-Glo assay kit and protocol from Promega Biosciences, LLC (Madison, Wis.).
A549 and Panc1 cells were plated according to the procedure described in Example 1. Cells were treated using a concentration gradient of rapamycin (FIGS. 5A-B) or Vosaroxin (a TOPOII poison; FIG. 5C), both in the presence and absence of Compound 91 at a concentration of 4 μM in replicates of 7 per condition. Cell viability was determined using the Cell-titer-Glo assay kit according to the procedure described in the examples above.

Structure (SMILES) | glutathione levels (GSH-Glo) [1] | tumor volume [2] | body weight [3] | cell viability: activity in presence vs absence of Compound 91 [4] | cell viability: activity in presence vs absence of Compound 91 [5]
Nc1cccc(F)c1CN(CCC1CCS(=O)(=O)CC1)C(=O)c1cc(C(F)(F)F)n[nH]1 [Compound 91] | decreased levels of glutathione | best reduction of tumor volume | no significant body weight reduction or fluctuation |  | 
CN[C@H]1CN(c2ccc3c(=O)c(C(=O)O)cn(-c4nccs4)c3n2)C[C@@H]1OC [Vosaroxin] |  |  |  | no significant change | no significant change
